How the values were obtained:
Type in all cases: biochemical
GST-JAK1 enzyme = GST-JAK1 enzyme (Homo sapiens, UniProt P23458); test: JAK1 Kinase Assay Protocol; conditions: Caliper LabChip assay, ATP 100 μM, fluoresceinated peptide; read-out: LLE_JAK1 (IC50)
Method: The assay reactions were performed in U-bottom 384-well plates. The final assay volume was 30 μl prepared from 15 μl additions of enzyme and substrates (fluoresceinated peptide and ATP) and test compounds in assay buffer (20 mM HEPES pH 7.4, 10 mM MgCl2, 25 mM beta-glycerol phosphate, 0.015% Brij35 and 4 mM DTT). The reaction was initiated by the combination of GST-JAK1 enzyme with substrates and test compounds. The reactions were incubated at room temperature for 3 hours and terminated by adding 60 μl of 35 mM EDTA to each sample. Each reaction mixture was analyzed on the Caliper LabChip 3000 (Caliper, Hopkinton, Mass.) by electrophoretic separation of the fluorescent substrate and phosphorylated product. […] The final concentration of reagents in the assays was: ATP, 100 μM; fluoresceinated peptide, 1.5 μM; GST-JAK1, 12.5 nM; and DMSO, 1.6%. […] Compounds were dissolved at 10 mM in dimethylsulfoxide (DMSO) and evaluated at eleven concentrations. IC50 values were derived by non-linear regression analysis.

GST-JAK3 enzyme = target: T1, GST-JAK3 enzyme (Homo sapiens, UniProt P52333); test: JAK3 Kinase Assay Protocol (Caliper); conditions: Caliper LabChip assay, ATP 8 μM, fluoresceinated peptide; read-out: LLE_JAK3_CAL (IC50)
T1 sequence (P52333 1-1124): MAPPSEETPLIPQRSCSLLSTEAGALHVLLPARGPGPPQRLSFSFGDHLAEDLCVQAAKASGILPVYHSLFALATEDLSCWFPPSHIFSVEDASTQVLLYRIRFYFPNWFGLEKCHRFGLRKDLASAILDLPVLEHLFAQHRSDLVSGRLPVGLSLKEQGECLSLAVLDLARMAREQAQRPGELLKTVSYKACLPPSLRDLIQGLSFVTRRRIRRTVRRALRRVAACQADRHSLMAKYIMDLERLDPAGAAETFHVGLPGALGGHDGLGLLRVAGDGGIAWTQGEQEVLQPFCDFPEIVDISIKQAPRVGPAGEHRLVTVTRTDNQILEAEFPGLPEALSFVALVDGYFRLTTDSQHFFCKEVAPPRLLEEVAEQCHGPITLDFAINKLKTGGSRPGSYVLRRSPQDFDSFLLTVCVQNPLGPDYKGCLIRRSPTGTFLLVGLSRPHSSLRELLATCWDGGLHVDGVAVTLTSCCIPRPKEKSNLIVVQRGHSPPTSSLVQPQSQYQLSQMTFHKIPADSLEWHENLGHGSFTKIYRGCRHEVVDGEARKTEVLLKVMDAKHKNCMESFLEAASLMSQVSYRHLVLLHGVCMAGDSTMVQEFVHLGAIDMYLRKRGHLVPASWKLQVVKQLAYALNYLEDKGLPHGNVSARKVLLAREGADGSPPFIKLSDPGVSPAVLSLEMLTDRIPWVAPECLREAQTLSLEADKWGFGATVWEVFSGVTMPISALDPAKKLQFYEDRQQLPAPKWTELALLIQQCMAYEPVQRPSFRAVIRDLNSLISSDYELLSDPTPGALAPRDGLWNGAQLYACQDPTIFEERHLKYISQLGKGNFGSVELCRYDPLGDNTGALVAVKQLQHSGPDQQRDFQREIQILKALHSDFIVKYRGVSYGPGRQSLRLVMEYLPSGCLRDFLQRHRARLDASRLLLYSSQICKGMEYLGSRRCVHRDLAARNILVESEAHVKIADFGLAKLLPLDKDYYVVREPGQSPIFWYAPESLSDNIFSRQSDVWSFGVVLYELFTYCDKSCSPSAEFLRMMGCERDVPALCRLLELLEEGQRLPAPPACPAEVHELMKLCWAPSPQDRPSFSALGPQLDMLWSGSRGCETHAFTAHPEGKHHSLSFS
Method: The assay reactions were performed in U-bottom 384-well plates. […] The reaction was initiated by the combination of GST-JAK3 enzyme with substrates and test compounds. The reactions were incubated at room temperature for 3 hours and terminated by adding 60 μl of 35 mM EDTA to each sample. Each reaction mixture was analyzed on the Caliper LabChip 3000 (Caliper, Hopkinton, Mass.) by electrophoretic separation of the fluorescent substrate and phosphorylated product. […] Compounds were dissolved at 10 mM in dimethylsulfoxide (DMSO) and evaluated at eleven concentrations. IC50 values were derived by non-linear regression analysis.

JAK3 enzyme = target: T2, JAK3 enzyme (Homo sapiens, UniProt P52333); test: JAK3 Kinase Assay Protocol (Filter); conditions: 33P γ-ATP, 8 μM ATP, CSKtide substrate, read-out: LLE_JAK3_FB (IC50)
T2 sequence (P52333 1-1124): T1 sequence (P52333 1-1124)
Method: Kinase reactions consisted of 5 ng of JAK3 enzyme, 30 uM CSKtide substrate, 0.2 μCi ^33P γ-ATP, 8 μM ATP in 30 μl kinase buffer (50 mM Hepes, pH 8.0, 10 mM MgCl2, 1 mM EGTA, 2 mM DTT). Reactions were incubated for 30 minutes at room temperature and stopped by the addition of cold trichloroacetic acid (TCA) to a final concentration of 15%. TCA precipitates were collected onto 384 well phosphocellulose filters (Millipore) using a Platemate to transfer the reaction mixture, washed on an EMBLA plate washer and the filters were quantitated using a TopCount 384-well liquid scintillation counter. […] Compounds were dissolved at 10 mM in dimethylsulfoxide (DMSO) and evaluated at six concentrations, each in triplicate. The final concentration of DMSO in the assay equaled 2%. IC50 values were derived by non-linear regression analysis.

Sequence of GST-JAK1 enzyme (P23458 whole entry): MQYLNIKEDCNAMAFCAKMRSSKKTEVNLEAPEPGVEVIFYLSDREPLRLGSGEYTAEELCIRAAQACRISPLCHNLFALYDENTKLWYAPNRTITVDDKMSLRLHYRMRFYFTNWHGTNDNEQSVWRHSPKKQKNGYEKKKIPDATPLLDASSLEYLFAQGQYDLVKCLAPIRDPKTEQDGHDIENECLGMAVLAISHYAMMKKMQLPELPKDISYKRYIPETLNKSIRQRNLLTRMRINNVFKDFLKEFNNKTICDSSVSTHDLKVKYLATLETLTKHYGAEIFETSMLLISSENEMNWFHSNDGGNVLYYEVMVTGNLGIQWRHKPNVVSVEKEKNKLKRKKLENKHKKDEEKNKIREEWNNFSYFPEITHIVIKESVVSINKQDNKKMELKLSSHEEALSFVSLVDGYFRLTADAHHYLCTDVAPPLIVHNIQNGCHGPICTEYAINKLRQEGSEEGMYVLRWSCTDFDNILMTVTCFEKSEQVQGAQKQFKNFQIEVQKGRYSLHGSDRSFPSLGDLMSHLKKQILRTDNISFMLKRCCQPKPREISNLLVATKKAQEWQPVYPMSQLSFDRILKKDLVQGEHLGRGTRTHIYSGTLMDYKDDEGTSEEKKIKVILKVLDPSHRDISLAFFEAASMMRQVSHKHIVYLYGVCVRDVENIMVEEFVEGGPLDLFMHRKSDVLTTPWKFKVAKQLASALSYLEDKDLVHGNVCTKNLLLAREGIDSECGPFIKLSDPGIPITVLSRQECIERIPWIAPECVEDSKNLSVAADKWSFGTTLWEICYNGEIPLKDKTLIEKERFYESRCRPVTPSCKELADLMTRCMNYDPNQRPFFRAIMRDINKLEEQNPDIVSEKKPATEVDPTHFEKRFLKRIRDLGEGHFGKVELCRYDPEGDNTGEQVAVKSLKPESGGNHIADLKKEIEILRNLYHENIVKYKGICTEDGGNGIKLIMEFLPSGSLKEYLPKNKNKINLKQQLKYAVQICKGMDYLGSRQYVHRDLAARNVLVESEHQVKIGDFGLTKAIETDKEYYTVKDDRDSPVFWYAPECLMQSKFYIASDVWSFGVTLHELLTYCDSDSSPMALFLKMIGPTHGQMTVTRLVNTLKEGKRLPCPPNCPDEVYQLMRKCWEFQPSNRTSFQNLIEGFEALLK

SMILES: C[C@@H](Nc1c(C(N)=O)cnn2cc(-c3ccc(F)cc3)cc12)C(C)(C)F [Example 37]
- IC50 (GST-JAK1 enzyme): 3.8 nM
- IC50 (GST-JAK3 enzyme): 0.6 nM
- IC50 (JAK3 enzyme): 18.8 nM

SMILES: C[C@@H](Nc1c(C(N)=O)cnn2cc(-c3cnc(NCCN(C)C)nc3)cc12)C1CC1 [Example 205]
- IC50 (GST-JAK1 enzyme): 110 nM
- IC50 (GST-JAK3 enzyme): 5.4 nM
- IC50 (JAK3 enzyme): 7.9 nM

SMILES: C[C@@H](Nc1c(C(N)=O)cnn2cc(N3CCCS3(=O)=O)cc12)C(C)(C)F [Example 131]
- IC50 (GST-JAK1 enzyme): 83.1 nM
- IC50 (GST-JAK3 enzyme): 4.8 nM
- IC50 (JAK3 enzyme): 11.3 nM

SMILES: CCOC(=O)Nc1cc2c(N[C@H](C)C(C)(C)C)c(C(N)=O)cnn2c1 [Example 9]
- IC50 (GST-JAK1 enzyme): 7 nM
- IC50 (GST-JAK3 enzyme): 0.7 nM
- IC50 (JAK3 enzyme): 0.2 nM

SMILES: COc1cc(-c2cc3c(NC(C)C)c(C(N)=O)cnn3c2)c(F)cn1 [Example 154]
- IC50 (GST-JAK1 enzyme): 149 nM
- IC50 (GST-JAK3 enzyme): 56.3 nM
- IC50 (JAK3 enzyme): 35.1 nM

SMILES: C[C@@H](Nc1c(C(N)=O)cnn2cc(-n3ccccc3=O)cc12)C(C)(C)C [Example 5]
- IC50 (GST-JAK1 enzyme): 193 nM
- IC50 (GST-JAK3 enzyme): 24 nM
- IC50 (JAK3 enzyme): 48.4 nM

SMILES: C[C@@H](Nc1c(C(N)=O)cnn2cc(N3CCN(C)C3=O)cc12)C(C)(C)C [Example 25]
- IC50 (GST-JAK1 enzyme): 86 nM
- IC50 (GST-JAK3 enzyme): 4.7 nM
- IC50 (JAK3 enzyme): 5.9 nM

SMILES: C[C@@H](Nc1c(C(N)=O)cnn2cc(-c3cccc(C#N)c3)cc12)C(C)(C)F [Example 53, (R)-6-(3-cyanophenyl)-4-(3-fluoro-3-methylbutan-2-ylamino)pyrrolo[1,2-b]pyridazine-3-carboxamide]
- IC50 (GST-JAK1 enzyme): 5.2 nM
- IC50 (GST-JAK3 enzyme): 1.4 nM
- IC50 (JAK3 enzyme): 0.9 nM

SMILES: C[C@@H](Nc1c(C(N)=O)cnn2cc(-c3cnc(N)nc3)cc12)C1CC1 [Example 192, (R)-6-(2-aminopyrimidin-5-yl)-4-(1-cyclopropylethylamino)pyrrolo[1,2-b]pyridazine-3-carboxamide]
- IC50 (GST-JAK1 enzyme): 13 nM
- IC50 (GST-JAK3 enzyme): 2.1 nM
- IC50 (JAK3 enzyme): 1.7 nM

SMILES: C[C@@H](Nc1c(C(N)=O)cnn2cc(N3CCOCC3=O)cc12)C(C)(C)F [Example 129]
- IC50 (GST-JAK1 enzyme): 61.1 nM
- IC50 (GST-JAK3 enzyme): 8.4 nM
- IC50 (JAK3 enzyme): 11 nM

SMILES: C[C@@H](Nc1c(C(N)=O)cnn2cc(N3CCOC3=O)cc12)C(C)(C)C [Example 22]
- IC50 (GST-JAK1 enzyme): 34 nM
- IC50 (GST-JAK3 enzyme): 2.8 nM
- IC50 (JAK3 enzyme): 0.7 nM

SMILES: CC(C)[C@H]1COC(=O)N1c1cc2c(N[C@H](C)C(C)(C)C)c(C(N)=O)cnn2c1 [Example 18]
- IC50 (GST-JAK1 enzyme): 570 nM
- IC50 (GST-JAK3 enzyme): 105 nM
- IC50 (JAK3 enzyme): 109 nM

SMILES: CNC(=O)c1ccc(-c2cc3c(N[C@H](C)C4CC4)c(C(N)=O)cnn3c2)cn1 [Example 202]
- IC50 (GST-JAK1 enzyme): 3.8 nM
- IC50 (GST-JAK3 enzyme): 1.2 nM
- IC50 (JAK3 enzyme): 1.8 nM

SMILES: CCCNc1c(C(N)=O)cnn2cc(-c3ccccc3)cc12 [Example 183, 6-phenyl-4-(propylamino)pyrrolo[1,2-b]pyridazine-3-carboxamide]
- IC50 (GST-JAK1 enzyme): 37.3 nM
- IC50 (GST-JAK3 enzyme): 27.3 nM
- IC50 (JAK3 enzyme): 11 nM

SMILES: CC(C)Nc1c(C(N)=O)cnn2cc(-c3ccc(C#N)cc3)cc12 [Example 146]
- IC50 (GST-JAK1 enzyme): 26.5 nM
- IC50 (GST-JAK3 enzyme): 11.1 nM
- IC50 (JAK3 enzyme): 15.1 nM

SMILES: C[C@@H](Nc1c(C(N)=O)cnn2cc(-c3nnc(N4CCN(C)CC4)o3)cc12)C1(C)CC1 [Example 241, (R)-4-((1-(1-methylcyclopropyl)ethyl)amino)-6-(5-(4-methylpiperazin-1-yl)-1,3,4-oxadiazol-2-yl)pyrrolo[1,2-b]pyridazine-3-carboxamide]
- IC50 (GST-JAK1 enzyme): 100 nM
- IC50 (GST-JAK3 enzyme): 1.8 nM
- IC50 (JAK3 enzyme): 2.3 nM
